The test system of one experiment is α1-adrenoceptors. The experiment is described as follows: inhibition of tritiated ligand ([7-methoxy-^3 H]prazosin) binding to α1-adrenoceptors in vitro (whole cortical tissue). Set-up: species or system rat (male Charles River CD). To be noted: rat whole cortical tissue; for % displacement at 10^-6 M, α1: 30 min, 1 µM; for Ki: 30° C., 30 minutes, > from highest concentration which displaced ≤50% of the ligand. As for the experimental part: The supernatant was centrifuged at 30,000 g at 4° C. for 10 minutes. […] Aliquots (400 μl; equivalent to 5 mg wet weight of tissue/tube) of this suspension were added to tubes containing the ligand (50 μl; 0.1 nM) and distilled water (50 μl; total binding) or phentolamine (50 μl; 5 μM; non-specific binding) or test compound (50 μl; at a single concentration of 10^-6 M or at 10 concentrations ranging from 10^-11 -10^-3 M). The ligand was [7-methoxy-^3 H]prazosin and the mixture was incubated at 30° C. for 30 minutes before the incubation was terminated by rapid filtration.
(§1) The filters were punched out into vials, scintillation fluid added and radioactivity determined by liquid scintillation counting. The percentage displacement of specific binding of the tritiated ligand was calculated for the single concentration (10^-6 M) of test compound. Displacement curves were then produced for those compounds which displaced ≥50% of specific binding of the tritiated ligand at 10^-6 M using a range of concentrations of the compound. […] The inhibition coefficient Ki was then calculated using the formula [formula] in which [ligand] is the concentration of the tritiated ligand used and KD is the equilibrium dissociation constant for the ligand.

A further experiment has as its target T1, 5-HT1A receptors (Rattus norvegicus, UniProt P19327).
T1 sequence (P19327 1-422): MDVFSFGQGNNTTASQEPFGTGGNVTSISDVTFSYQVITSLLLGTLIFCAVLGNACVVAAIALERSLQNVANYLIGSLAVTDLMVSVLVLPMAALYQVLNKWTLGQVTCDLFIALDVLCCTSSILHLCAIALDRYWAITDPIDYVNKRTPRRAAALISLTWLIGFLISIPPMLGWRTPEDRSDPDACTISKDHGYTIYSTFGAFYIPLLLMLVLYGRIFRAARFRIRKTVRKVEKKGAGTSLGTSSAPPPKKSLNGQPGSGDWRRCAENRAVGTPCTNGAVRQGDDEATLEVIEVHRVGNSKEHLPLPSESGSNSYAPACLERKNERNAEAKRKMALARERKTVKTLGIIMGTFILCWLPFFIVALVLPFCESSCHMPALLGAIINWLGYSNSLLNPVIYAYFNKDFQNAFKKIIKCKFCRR
The experiment is described as follows: biochemical. Format: binding, rat (male Charles River CD). The following applies: for Ki: 25° C., 30 minutes. On the procedure: The pellet was rehomogenised in the same buffer, incubated at 37° C. for 10 minutes and centrifuged at 30,000 g at 4° C. for 10 minutes. […] Aliquots (400 μl; equivalent to 2.5 mg wet weight of tissue/tube) of this suspension were added to tubes containing the ligand (50 μl; 2 nM) and distilled water (50 μl; total binding) or 5-HT (50 μl; 10 µM; non-specific binding) or test compound (50 μl; at a single concentration of 10^-6 M or at 10 concentrations ranging from 10^-11 -10^-3 M). The ligand was [^3 H]8-hydroxy-2-(dipropylamino)tetralin([^3 H]8-OH-DPAT) and the mixture was incubated at 25° C. for 30 minutes before the incubation was terminated by rapid filtration.
as §1

A further experiment deals with T2, α2-adrenoceptors (Rattus norvegicus, UniProt P22909).
T2 sequence (P22909 1-465): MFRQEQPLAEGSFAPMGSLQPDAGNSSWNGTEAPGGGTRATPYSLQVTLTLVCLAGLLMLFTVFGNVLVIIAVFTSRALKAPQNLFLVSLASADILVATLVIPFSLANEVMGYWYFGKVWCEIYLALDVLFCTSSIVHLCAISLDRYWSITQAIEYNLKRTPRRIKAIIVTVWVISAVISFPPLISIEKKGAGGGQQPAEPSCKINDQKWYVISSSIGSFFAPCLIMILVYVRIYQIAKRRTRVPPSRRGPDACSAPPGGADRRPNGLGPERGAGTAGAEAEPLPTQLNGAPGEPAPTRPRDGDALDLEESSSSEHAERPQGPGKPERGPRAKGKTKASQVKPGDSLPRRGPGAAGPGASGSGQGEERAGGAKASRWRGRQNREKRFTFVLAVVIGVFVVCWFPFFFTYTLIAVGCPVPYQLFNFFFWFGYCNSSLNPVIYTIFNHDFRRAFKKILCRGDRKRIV
In words: inhibition of tritiated ligand (tritiated idazoxan) binding to α2-adrenoceptors in vitro (frontal cortical tissue). Further details: species or system rat (male Charles River CD). To be noted: for Ki: 0° C., 75 minutes, > from highest concentration which displaced ≤50% of the ligand. On the procedure:
Frontal cortical tissue from the brains of male Charles River CD rats weighing between 150-250 g were homogenised in ice-cold 0.25M sucrose (1:30 w/v) and centrifuged at 1,000 g at 4° C. for 12 minutes. The supernatant was stored on ice and the pellet was rehomogenised in 0.25M sucrose (1:15 w/v) and centrifuged at 850 g at 4° C. for 12 minutes. Combined supernatants were diluted with 5 mM Tris-HCl (pH 7.5) containing 0.5M ethylenediamine tetraacetic acid (EDTA) readjusted to pH 7.5 (at 25° C.) with 1M sodium hydroxide to 1:80 w/v, and centrifuged at 30,000 g at 4° C. for 10 minutes. The resulting pellet was resuspended in 5 mM Tris-HCl (pH 7.5) containing 5.68 mM L-ascorbic acid and 5 mM EDTA readjusted to pH 7.5 (at 25° C.) with 1M sodium hydroxide, and centrifuged at 30,000 g for 10 minutes. The final pellet was resuspended in 50 mM Tris-HCl (pH 7.5) containing 5.68 mM L-ascorbic acid and 5 mM EDTA (equivalent to 12.5 mg wet weight of tissue/ml) and used immediately in the binding assay. Aliquots (400 μl; equivalent to 5 mg wet weight of tissue/tube) of this suspension were added to tubes containing the ligand (50 μl; 1 nM) and distilled water (50 μl; total binding) or phentolamine (50 μl; 5 μM; non-specificbinding) or test compound (50 μl; at a single concentration of 10^-6 M or at 10 concentrations ranging from 10^-11 -10^-3 M). The ligand was tritiated idazoxan ((1,4-[6,7(n)-^3 H]benzodioxan-2-yl)-2-imidazoline hydrochloride) and the mixture was incubated at 0° C. for 75 minutes before the incubation was terminated by rapid filtration.
as §1, with “The filters were washed with ice-cold Tris-HCl buffer and dried. The filters” for “The filters”

For another experiment, the target named is D2 dopamine receptors (Rattus norvegicus, UniProt P61169). In words: biochemical. To be noted: rat striatal tissue, tritiated (S)-sulpiride, 4° C., 40 minutes. The format is binding, rat (male Charles River CD).
Setting [1] is: 10^-6 M, rat hippocampal tissue, [^3 H]8-OH-DPAT, read-out: % displacement at 10^-6 M, 5-HT1A.
Setting [2] is: 10^-6 M, rat frontal cortical tissue, tritiated idazoxan, read-out: % displacement at 10^-6 M, α2.
Setting [3] is: read-out: % displacement at 10^-6 M, 5-HT1A, 10^-6 M, rat hippocampal tissue, [^3 H]8-OH-DPAT.
Setting [4] is: read-out: % displacement at 10^-6 M, α2, 10^-6 M, rat frontal cortical tissue, tritiated idazoxan.
[5] abbreviates: rat hippocampal tissue, [^3 H]8-OH-DPAT.
[6] abbreviates: rat frontal cortical tissue, tritiated idazoxan.

Structures can show the parent of a compound that is named as a salt. Where two headings read alike, the source gives them in different places. Some results are limits rather than exact numbers.

Sequence of D2 dopamine receptors (P61169 whole entry): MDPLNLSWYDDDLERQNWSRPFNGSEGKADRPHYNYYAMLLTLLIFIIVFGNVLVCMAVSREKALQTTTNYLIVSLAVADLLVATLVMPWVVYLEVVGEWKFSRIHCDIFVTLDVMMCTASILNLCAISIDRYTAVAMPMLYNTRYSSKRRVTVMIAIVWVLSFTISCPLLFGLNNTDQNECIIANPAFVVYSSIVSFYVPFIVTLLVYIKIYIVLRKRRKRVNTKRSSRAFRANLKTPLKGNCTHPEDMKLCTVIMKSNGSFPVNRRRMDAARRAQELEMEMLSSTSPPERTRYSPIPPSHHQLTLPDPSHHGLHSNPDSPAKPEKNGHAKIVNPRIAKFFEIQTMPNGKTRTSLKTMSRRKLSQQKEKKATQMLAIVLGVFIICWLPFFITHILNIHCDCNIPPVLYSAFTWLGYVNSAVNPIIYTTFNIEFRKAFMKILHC

With `c1ccc(N2CCC(CNCC3COc4ccccc4O3)CC2)nc1` (single isomer, unassigned; (+)) [Example 20, (+)-N-(1,4-benzodioxan-2-ylmethyl)-1-[1-pyrid-2-yl)piperid-4-yl]methylamine dihydrochloride], the “% displacement at 10^-6 M, α1” value in the experiment with α1-adrenoceptors turned out to be 94%. Also, the inhibition at 1 µM on 5-HT1A receptors (setting [1]) came to 82%; at α2-adrenoceptors (setting [2]) it was 91%.

Turning to `Cl.Cl.c1ccc(N2CCC(CNCC3COc4ccccc4O3)CC2)nc1` (single isomer, unassigned; (-)) [Example 19, (-)-N-(1,4-benzodioxan-2-ylmethyl)-1-[1-(pyrid-2-yl)piperid-4-yl]methylamine dihydrochloride], in the experiment with α1-adrenoceptors, the “% displacement at 10^-6 M, α1” value was determined as 98%. The results for the inhibition at 1 µM at 5-HT1A receptors (setting [3]) and on α2-adrenoceptors (setting [4]) were 98% and 96%, respectively.

The term Ki denotes the equilibrium dissociation constant of an inhibitor or competing ligand from its target. A low value points to a stronger hold on the target. As to `c1ccc2c(c1)OCC(CNCC1CCN(c3cnccn3)CC1)O2` (stereo not drawn) [Example 1, N-(1,4-benzodioxan-2-ylmethyl)-1-[1-(pyrazin-2-yl)piperid-4-yl]methylamine1.4 hydrochloride], the Ki came to 15.6 nM at D2 dopamine receptors, 23.9 nM at α1-adrenoceptors, 14 nM on 5-HT1A receptors (setting [5]) and 31 nM at α2-adrenoceptors (setting [6]).

`COc1ccccc1N1CCC(CNCC2COc3ccccc3O2)CC1` (stereo not drawn) [Example 2, N-(1,4-benzodioxan-2-ylmethyl)-1-[1-(2-methoxyphenyl)piperid-4-yl]methylamine dihydrochloride]: the inhibition constant (Ki) at D2 dopamine receptors worked out at 19 nM; at α1-adrenoceptors it was 78 nM; at 5-HT1A receptors (setting [5]), 7.7 nM; at α2-adrenoceptors (setting [6]) it was 394 nM.

With `Clc1cccnc1N1CCC(CNCC2COc3ccccc3O2)CC1` (stereo not drawn) [Example 3, N-(1,4-benzodioxan-2-ylmethyl)-1-[1-(3-chloropyrid-2-yl)piperid-4-yl]methylamine 1.4 hydrochloride], the Ki at D2 dopamine receptors is 45.3 nM; at α1-adrenoceptors it was 38 nM; on 5-HT1A receptors (setting [5]), 1.9 nM; on α2-adrenoceptors (setting [6]), 86 nM.

In the case of `c1ccc2c(c1)OCC(CNCC1CCN(c3ncnc4ccccc34)CC1)O2` (stereo not drawn) [Example 4, N-(1,4-benzodioxan-2-ylmethyl)-1-[1-(quinazolin-4-yl)piperid-4-yl]methylamine dihydrochloride], the Ki at D2 dopamine receptors is 35.8 nM; at α1-adrenoceptors, 13 nM; at 5-HT1A receptors (setting [5]), 3.8 nM; at α2-adrenoceptors (setting [6]) it was 30 nM.

Turning to `COc1ccccc1N1CCC(CNC[C@H]2COc3ccccc3O2)CC1` [Example 7, (S)-(-)-N-(1,4-benzodioxan-2-ylmethyl)-1-[1-(2-methoxyphenyl)-piperid-4-yl]methylamine], the “% displacement at 10^-6 M, α1” value with α1-adrenoceptors was determined as 94%. Besides, the inhibition at 1 µM is 96% at 5-HT1A receptors (setting [1]) and 72% on α2-adrenoceptors (setting [2]).

For the molecule `Cl.Cl.c1ccc(N2CCC(CNCC3COc4ccccc4O3)CC2)cc1` (stereo not drawn) [Example 12, N-(1,4-benzodioxan-2-ylmethyl)-1-(1-phenylpiperid-4-yl)methylamine dihydrochloride], the “% displacement at 10^-6 M, α1” value in the experiment on α1-adrenoceptors is recorded as 89%. Moreover, the inhibition at 1 µM at 5-HT1A receptors (setting [3]) came out at 97%; at α2-adrenoceptors (setting [4]) it was 66%.

As to `Cl.Cl.c1ccc2c(c1)OCC(CNCC1CCN(c3cccc4c3OCCO4)CC1)O2` (stereo not drawn) [Example 13, N-(1,4-benzodioxan-2-ylmethyl)-1-[1-(1,4-benzodioxan-5-yl)piperid-4-yl]methylamine dihydrochloride], the “% displacement at 10^-6 M, α1” value in the experiment on α1-adrenoceptors is 93%. Further, the inhibition at 1 µM came to 100% on 5-HT1A receptors (setting [3]) and 66% on α2-adrenoceptors (setting [4]).

Turning to `COc1ccccc1N1CCC(CNC[C@@H]2COc3ccccc3O2)CC1` [Example 14, (R)-(+)-N-(1,4-benzodioxan-2-ylmethyl)-1-[1-(2-methoxyphenyl)piperid-4-yl]methylamine], the “% displacement at 10^-6 M, α1” value in the experiment with α1-adrenoceptors stood at 57%. Also, the inhibition at 1 µM at 5-HT1A receptors (setting [1]) worked out at 87%. Moreover, the Ki on α2-adrenoceptors (setting [6]) is over 500 nM.

On to `COc1ccccc1NCC1CCN(CC2COc3ccccc3O2)CC1.O=C(O)C(=O)O` (stereo not drawn) [Example 15, 1-[1-(1,4-benzodioxan-2-ylmethyl)piperid-4-yl]-N-(2-methoxyphenyl)methylamine mono-oxalate], for which the “% displacement at 10^-6 M, α1” value in the experiment with α1-adrenoceptors was found to be 94%. Moreover, the results for the inhibition at 1 µM on 5-HT1A receptors (setting [3]) and at α2-adrenoceptors (setting [4]) were 97% and 94%, respectively.

Take `COc1ccc(N2CCC(CNCC3COc4ccccc4O3)CC2)cc1.Cl.Cl` (stereo not drawn) [Example 16, N-(1,4-benzodioxan-2-ylmethyl)-1-[1-(4-methoxyphenyl)piperid-4-yl]methylamine dihydrochloride]: the “% displacement at 10^-6 M, α1” value in the experiment with α1-adrenoceptors is given as 94%. Further, the inhibition at 1 µM worked out at 98% at 5-HT1A receptors (setting [3]) and 64% on α2-adrenoceptors (setting [4]).

`COc1cccc(N2CCC(CNCC3COc4ccccc4O3)CC2)c1` (stereo not drawn) [Example 18, N-(1,4-benzodioxan-2-ylmethyl)-1-[1-(3-methoxyphenyl)piperid-4-yl]methylamine hydrochloride]: the Ki at 5-HT1A receptors (setting [5]) was 7 nM; at α2-adrenoceptors (setting [6]), 242 nM.

Turning to `COc1ccccc1N1CCC(CNCC2COc3cccc(O)c3O2)CC1` (stereo not drawn) [Example 28, N-(8-hydroxy-1,4-benzodioxan-2-ylmethyl) -1-[1-(2-methoxyphenyl)piperid-4-yl]methylamine], the Ki on α1-adrenoceptors and on α2-adrenoceptors (setting [6]) was over 500 nM each time. For the same molecule, the inhibition at 1 µM on 5-HT1A receptors (setting [1]) was 94%.

Values taken from US5767116A, “Bicyclic aromatic compounds as therapeutic agents” (Knoll Atkiengesellschaft, priority 1993, dated 1998).
